{"source": "patent US9340590B2", "about": "(priority 2011, dated 2016)", "test_in_all_cases": "cell-based", "key": {"hNav1.3": {"target": "hNav1.3 (Homo sapiens, UniProt Q9NY46)", "settings": "IonWorks Quattro, read-out: IWQ Use Nav1.3"}, "hNav1.5": {"target": "hNav1.5 (Homo sapiens, UniProt Q14524)", "sequence (Q14524 whole entry, looked up)": "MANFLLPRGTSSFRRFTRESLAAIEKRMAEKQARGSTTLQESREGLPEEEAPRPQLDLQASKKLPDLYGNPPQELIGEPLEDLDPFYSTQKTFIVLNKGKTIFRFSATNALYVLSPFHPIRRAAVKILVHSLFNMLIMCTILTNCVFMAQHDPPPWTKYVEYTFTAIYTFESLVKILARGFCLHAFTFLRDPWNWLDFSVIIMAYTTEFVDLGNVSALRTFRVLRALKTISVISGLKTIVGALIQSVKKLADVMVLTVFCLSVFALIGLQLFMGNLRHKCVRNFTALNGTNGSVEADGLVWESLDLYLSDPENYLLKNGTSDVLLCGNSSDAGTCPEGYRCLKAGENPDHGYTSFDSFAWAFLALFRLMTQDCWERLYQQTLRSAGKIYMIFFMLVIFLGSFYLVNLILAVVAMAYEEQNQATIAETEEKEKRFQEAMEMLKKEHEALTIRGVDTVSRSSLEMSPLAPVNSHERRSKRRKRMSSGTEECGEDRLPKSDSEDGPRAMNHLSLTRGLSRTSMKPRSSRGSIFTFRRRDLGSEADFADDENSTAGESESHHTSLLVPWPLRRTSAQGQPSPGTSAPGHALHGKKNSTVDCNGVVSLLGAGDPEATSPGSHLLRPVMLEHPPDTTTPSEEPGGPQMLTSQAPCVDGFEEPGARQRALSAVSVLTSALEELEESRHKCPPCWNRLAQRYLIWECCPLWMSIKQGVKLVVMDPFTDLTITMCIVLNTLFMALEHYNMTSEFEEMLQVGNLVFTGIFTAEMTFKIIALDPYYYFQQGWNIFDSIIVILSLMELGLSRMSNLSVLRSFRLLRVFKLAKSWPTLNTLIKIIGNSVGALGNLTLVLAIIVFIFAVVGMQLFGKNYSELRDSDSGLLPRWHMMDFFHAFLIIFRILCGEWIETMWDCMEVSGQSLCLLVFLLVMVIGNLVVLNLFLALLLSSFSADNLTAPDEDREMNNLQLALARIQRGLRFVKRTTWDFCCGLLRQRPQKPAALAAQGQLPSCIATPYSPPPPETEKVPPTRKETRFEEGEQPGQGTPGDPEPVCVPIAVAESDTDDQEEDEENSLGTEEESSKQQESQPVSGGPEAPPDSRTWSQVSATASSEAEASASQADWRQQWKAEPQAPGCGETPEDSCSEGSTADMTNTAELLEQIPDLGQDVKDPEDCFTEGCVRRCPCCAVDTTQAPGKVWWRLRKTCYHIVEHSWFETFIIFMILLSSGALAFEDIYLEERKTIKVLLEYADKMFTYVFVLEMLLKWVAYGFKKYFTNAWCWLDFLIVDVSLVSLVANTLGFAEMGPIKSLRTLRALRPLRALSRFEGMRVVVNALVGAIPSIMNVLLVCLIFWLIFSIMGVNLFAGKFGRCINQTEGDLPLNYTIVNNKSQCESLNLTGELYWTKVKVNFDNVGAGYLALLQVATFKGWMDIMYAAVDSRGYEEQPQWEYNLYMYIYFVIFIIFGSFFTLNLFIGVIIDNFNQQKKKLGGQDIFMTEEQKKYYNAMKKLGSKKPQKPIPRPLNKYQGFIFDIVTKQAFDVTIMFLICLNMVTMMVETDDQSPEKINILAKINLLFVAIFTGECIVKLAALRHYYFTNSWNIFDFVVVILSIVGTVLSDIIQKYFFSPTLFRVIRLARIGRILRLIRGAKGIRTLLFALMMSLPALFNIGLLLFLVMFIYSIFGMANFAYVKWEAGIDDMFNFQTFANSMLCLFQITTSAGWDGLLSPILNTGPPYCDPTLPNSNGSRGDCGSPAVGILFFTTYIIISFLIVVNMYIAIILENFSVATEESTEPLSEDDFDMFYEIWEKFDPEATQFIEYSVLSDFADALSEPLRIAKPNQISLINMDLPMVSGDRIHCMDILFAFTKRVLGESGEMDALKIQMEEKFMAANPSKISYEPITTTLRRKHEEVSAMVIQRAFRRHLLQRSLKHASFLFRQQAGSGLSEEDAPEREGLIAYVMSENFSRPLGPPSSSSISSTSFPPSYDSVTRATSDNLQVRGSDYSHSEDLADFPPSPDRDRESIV", "settings": "IonWorks Quattro, read-out: IWQ Use Nav1.5"}, "hNav1.7": {"target": "hNav1.7 (Homo sapiens, UniProt Q15858)", "sequence (Q15858 whole entry, looked up)": "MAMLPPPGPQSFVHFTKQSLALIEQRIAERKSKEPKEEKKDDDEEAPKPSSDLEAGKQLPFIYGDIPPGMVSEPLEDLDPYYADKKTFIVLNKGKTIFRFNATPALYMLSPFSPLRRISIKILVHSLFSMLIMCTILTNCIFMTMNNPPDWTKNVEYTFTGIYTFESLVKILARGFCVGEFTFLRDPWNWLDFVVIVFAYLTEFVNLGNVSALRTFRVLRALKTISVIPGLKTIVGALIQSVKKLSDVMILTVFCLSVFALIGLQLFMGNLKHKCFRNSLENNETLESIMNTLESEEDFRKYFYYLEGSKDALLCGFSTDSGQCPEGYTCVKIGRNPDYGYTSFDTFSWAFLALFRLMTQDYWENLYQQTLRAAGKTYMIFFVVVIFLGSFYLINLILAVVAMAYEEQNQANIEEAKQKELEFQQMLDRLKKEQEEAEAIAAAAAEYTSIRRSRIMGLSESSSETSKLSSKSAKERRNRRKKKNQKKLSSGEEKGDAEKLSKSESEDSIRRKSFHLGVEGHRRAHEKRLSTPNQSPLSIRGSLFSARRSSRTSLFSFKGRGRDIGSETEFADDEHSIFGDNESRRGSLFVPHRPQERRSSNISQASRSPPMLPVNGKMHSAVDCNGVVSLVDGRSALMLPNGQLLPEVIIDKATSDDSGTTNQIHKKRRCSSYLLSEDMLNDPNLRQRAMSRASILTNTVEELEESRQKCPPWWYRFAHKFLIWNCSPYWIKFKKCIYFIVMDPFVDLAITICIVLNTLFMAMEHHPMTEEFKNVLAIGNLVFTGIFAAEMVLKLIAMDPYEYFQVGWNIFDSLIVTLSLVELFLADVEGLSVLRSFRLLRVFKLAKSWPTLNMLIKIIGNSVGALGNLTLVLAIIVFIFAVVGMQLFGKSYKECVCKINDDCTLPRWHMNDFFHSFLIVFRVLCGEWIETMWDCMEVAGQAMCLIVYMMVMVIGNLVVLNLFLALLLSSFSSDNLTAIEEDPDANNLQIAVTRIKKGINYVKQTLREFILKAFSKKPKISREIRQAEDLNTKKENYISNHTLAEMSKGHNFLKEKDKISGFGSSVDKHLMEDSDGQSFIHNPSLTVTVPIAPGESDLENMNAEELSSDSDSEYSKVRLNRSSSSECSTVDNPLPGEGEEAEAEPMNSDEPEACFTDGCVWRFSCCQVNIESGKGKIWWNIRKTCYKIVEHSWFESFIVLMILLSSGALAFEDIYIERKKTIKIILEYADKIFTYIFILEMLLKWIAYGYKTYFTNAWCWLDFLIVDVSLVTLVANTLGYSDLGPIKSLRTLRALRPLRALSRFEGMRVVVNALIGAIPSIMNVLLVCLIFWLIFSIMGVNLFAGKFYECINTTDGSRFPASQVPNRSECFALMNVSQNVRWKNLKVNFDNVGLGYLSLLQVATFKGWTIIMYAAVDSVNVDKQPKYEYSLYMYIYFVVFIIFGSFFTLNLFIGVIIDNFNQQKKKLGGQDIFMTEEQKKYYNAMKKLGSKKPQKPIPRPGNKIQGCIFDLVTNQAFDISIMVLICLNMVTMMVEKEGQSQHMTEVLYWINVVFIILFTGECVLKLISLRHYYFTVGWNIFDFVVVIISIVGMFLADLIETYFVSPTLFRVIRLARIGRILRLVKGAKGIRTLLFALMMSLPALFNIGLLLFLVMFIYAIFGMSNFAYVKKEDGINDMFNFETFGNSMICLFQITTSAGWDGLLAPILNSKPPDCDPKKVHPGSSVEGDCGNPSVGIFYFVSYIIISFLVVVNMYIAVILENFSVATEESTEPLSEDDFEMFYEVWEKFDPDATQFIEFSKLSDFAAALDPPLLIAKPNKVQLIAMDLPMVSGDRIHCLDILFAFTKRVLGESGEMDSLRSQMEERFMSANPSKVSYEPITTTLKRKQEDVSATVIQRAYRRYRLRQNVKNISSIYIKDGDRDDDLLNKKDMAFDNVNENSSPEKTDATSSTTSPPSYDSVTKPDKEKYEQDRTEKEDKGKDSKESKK", "type": "cell-based", "settings": "IonWorks Quattro, read-out: IWQ Use Nav1.7"}, "[1]": {"settings": "clamped to −110 mV, depolarized to −10 mV, 5 min after compound, n=2"}}, "note": "Where two headings read alike, the source gives them in different places. Positions of bridges follow the written chain, without caps; N, C: chain ends. Residues, ends and D or L forms follow the SMILES beside them.", "data": [{"molecule": "CC[C@H](C)[C@@H]1NC(=O)[C@@H]2CSSC[C@@H]3NC(=O)[C@H](C(C)C)NC(=O)[C@H](CC(C)C)NC(=O)[C@H](CC(N)=O)NC(=O)[C@@H]4CCCN4C(=O)[C@H](CCCNC(=N)N)NC(=O)[C@H](CSSC[C@H](NC(=O)[C@@H](N)CC(=O)O)C(=O)N[C@@H](CC(C)C)C(=O)NCC(=O)N[C@@H](Cc4ccccc4)C(=O)N(C)[C@@H](Cc4ccccc4)C(=O)N[C@@H](CCCNC(=N)N)C(=O)N[C@@H](CCCCN)C(=O)N2)NC(=O)[C@H](CSSC[C@@H](C(=O)N[C@@H](CCCCN)C(=O)N[C@@H](Cc2ccc(O)cc2)C(=O)N[C@H](C(=O)N[C@@H](Cc2ccccc2)C(N)=O)C(C)C)NC(=O)[C@H](Cc2c[nH]c4ccccc24)NC(=O)[C@H](CCCCN)NC(=O)[C@H](Cc2c[nH]cn2)NC(=O)[C@H]([C@@H](C)O)NC(=O)[C@H](CCCNC(=N)N)NC(=O)[C@H](CO)NC3=O)NC(=O)[C@H](CCCCN)NC(=O)[C@H](CC(=O)O)NC(=O)[C@H](CC(N)=O)NC(=O)[C@H](CC(=O)O)NC(=O)[C@@H]2CCCN2C1=O", "note": "[SEQ ID NO: 290]", "values": [{"measurement": "IC50", "setting": "hNav1.3; [1]", "value": 140, "unit": "nM"}, {"measurement": "IC50", "setting": "hNav1.5; [1]", "value": 10.6, "unit": "µM"}, {"measurement": "IC50", "setting": "hNav1.7; [1]", "value": 240, "unit": "nM"}]}, {"molecule": "CC[C@H](C)[C@@H]1NC(=O)[C@@H]2CSSC[C@@H]3NC(=O)[C@H](C(C)C)NC(=O)[C@H](CC(C)C)NC(=O)[C@H](CC(N)=O)NC(=O)[C@@H]4CCCN4C(=O)[C@H](CCCNC(=N)N)NC(=O)[C@H](CSSC[C@H](NC(=O)[C@@H](N)CC(=O)O)C(=O)N[C@@H](CC(C)C)C(=O)NCC(=O)N[C@@H](Cc4ccccc4)C(=O)N[C@@H](Cc4cn(C)c5ccccc45)C(=O)N[C@@H](CCCNC(=N)N)C(=O)N[C@@H](CCCCN)C(=O)N2)NC(=O)[C@H](CSSC[C@@H](C(=O)N[C@@H](CCCCN)C(=O)N[C@@H](Cc2ccc(O)cc2)C(=O)N[C@H](C(=O)N[C@@H](Cc2ccccc2)C(N)=O)C(C)C)NC(=O)[C@H](Cc2c[nH]c4ccccc24)NC(=O)[C@H](CCCCN)NC(=O)[C@H](Cc2c[nH]cn2)NC(=O)[C@H]([C@@H](C)O)NC(=O)[C@H](CCCNC(=N)N)NC(=O)[C@H](CO)NC3=O)NC(=O)[C@H](CCCCN)NC(=O)[C@H](CC(=O)O)NC(=O)[C@H](CC(N)=O)NC(=O)[C@H](CC(=O)O)NC(=O)[C@@H]2CCCN2C1=O", "note": "[SEQ ID NO: 292]", "values": [{"measurement": "IC50", "setting": "hNav1.3; [1]", "value": 30, "unit": "nM"}, {"measurement": "IC50", "setting": "hNav1.5; [1]", "value": 5.66, "unit": "µM"}, {"measurement": "IC50", "setting": "hNav1.7; [1]", "value": 40, "unit": "nM"}]}, {"molecule": "CC[C@H](C)[C@@H]1NC(=O)[C@@H]2CSSC[C@@H]3NC(=O)[C@H](C(C)C)NC(=O)[C@H](CC(C)C)NC(=O)[C@H](CC(N)=O)NC(=O)[C@@H]4CCCN4C(=O)[C@H](CCCNC(=N)N)NC(=O)[C@H](CSSC[C@H](NC(=O)[C@@H](N)CC(=O)O)C(=O)N[C@@H](CC(C)C)C(=O)NCC(=O)N[C@@H](Cc4ccccc4)C(=O)N[C@@H](Cc4ccc(C(=O)O)cc4)C(=O)N[C@@H](CCCNC(=N)N)C(=O)N[C@@H](CCCCN)C(=O)N2)NC(=O)[C@H](CSSC[C@@H](C(=O)N[C@@H](CCCCN)C(=O)N[C@@H](Cc2ccc(O)cc2)C(=O)N[C@H](C(=O)N[C@@H](Cc2ccccc2)C(N)=O)C(C)C)NC(=O)[C@H](Cc2c[nH]c4ccccc24)NC(=O)[C@H](CCCCN)NC(=O)[C@H](Cc2c[nH]cn2)NC(=O)[C@H]([C@@H](C)O)NC(=O)[C@H](CCCNC(=N)N)NC(=O)[C@H](CO)NC3=O)NC(=O)[C@H](CCCCN)NC(=O)[C@H](CC(=O)O)NC(=O)[C@H](CC(N)=O)NC(=O)[C@H](CC(=O)O)NC(=O)[C@@H]2CCCN2C1=O", "note": "[SEQ ID NO: 293]", "values": [{"measurement": "IC50", "setting": "hNav1.3; [1]", "value": 13800, "unit": "nM"}, {"measurement": "IC50", "setting": "hNav1.5; [1]", "value": 11.1, "unit": "µM"}, {"measurement": "IC50", "setting": "hNav1.7; [1]", "value": 15800, "unit": "nM"}]}, {"molecule": "CC[C@H](C)[C@H](NC(=O)[C@H](CCC(=O)O)NC(=O)[C@H](Cc1ccc(O)cc1)NC(=O)[C@H](CCCCN)NC(=O)[C@@H]1CSSC[C@@H]2NC(=O)[C@H](CCCCN)NC(=O)[C@H](CC(=O)O)NC(=O)[C@H](CC(N)=O)NC(=O)[C@H](CC(=O)O)NC(=O)[C@@H]3CCCN3C(=O)[C@H](CO)NC(=O)[C@@H]3CSSC[C@H](NC(=O)[C@H](C(C)C)NC(=O)[C@H](CC(C)C)NC(=O)[C@H](CC(N)=O)NC(=O)[C@@H]4CCCN4C(=O)[C@H](CCCNC(=N)N)NC(=O)[C@H](CSSC[C@H](NC(=O)[C@@H](N)CC(=O)O)C(=O)N[C@@H](CC(C)C)C(=O)NCC(=O)N[C@@H](Cc4ccccc4)C(=O)N[C@@H](CCSC)C(=O)N[C@@H](CCCNC(=N)N)C(=O)N[C@@H](CCCCN)C(=O)N3)NC2=O)C(=O)N[C@@H](CO)C(=O)N[C@@H](CCCNC(=N)N)C(=O)N[C@@H](CCCCN)C(=O)N[C@@H](Cc2c[nH]cn2)C(=O)N[C@@H](CCCCN)C(=O)N[C@@H](Cc2c[nH]c3ccccc23)C(=O)N1)C(N)=O", "note": "[SEQ ID NO: 467] (H-DCLGFMRKCSPDNDKCCRPNLVCSRKHKWCKYEI-NH2; disulfide 2-17, 9-23, 16-30)", "values": [{"measurement": "IC50", "setting": "hNav1.3; [1]", "value": 1150, "unit": "nM"}, {"measurement": "IC50", "setting": "hNav1.5; [1]", "value": 7.21, "unit": "µM"}, {"measurement": "IC50", "setting": "hNav1.7; [1]", "value": 4340, "unit": "nM"}]}, {"molecule": "CC[C@H](C)[C@@H]1NC(=O)[C@@H]2CSSC[C@@H]3NC(=O)[C@H](C(C)C)NC(=O)[C@H](CC(C)C)NC(=O)[C@H](CC(N)=O)NC(=O)[C@@H]4CCCN4C(=O)[C@H](CCCNC(=N)N)NC(=O)[C@H](CSSC[C@H](NC(=O)[C@@H](N)CC(=O)O)C(=O)N[C@@H](CC(C)C)C(=O)NCC(=O)N[C@@H](Cc4ccccc4)C(=O)N[C@@H](CCSC)C(=O)N[C@@H](CCCNC(=N)N)C(=O)N[C@@H](C)C(=O)N2)NC(=O)[C@H](CSSC[C@@H](C(=O)N[C@@H](CCCCN)C(=O)N[C@@H](Cc2ccc(O)cc2)C(=O)N[C@H](C(=O)N[C@@H](Cc2ccccc2)C(N)=O)C(C)C)NC(=O)[C@H](Cc2c[nH]c4ccccc24)NC(=O)[C@H](CCCCN)NC(=O)[C@H](Cc2cnc[nH]2)NC(=O)[C@H]([C@@H](C)O)NC(=O)[C@H](CCCNC(=N)N)NC(=O)[C@H](CO)NC3=O)NC(=O)[C@H](CCCCN)NC(=O)[C@H](CC(=O)O)NC(=O)[C@H](CC(N)=O)NC(=O)[C@H](CC(=O)O)NC(=O)[C@@H]2CCCN2C1=O", "note": "[[Ala8]GpTx-1(1-34)] (H-DCLGFMRACIPDNDKCCRPNLVCSRTHKWCKYVF-NH2; disulfide 2-17, 9-23, 16-30)", "values": [{"measurement": "IC50", "setting": "hNav1.3; use-dependent block, hNav1.3", "value": 410, "unit": "nM"}, {"measurement": "IC50", "setting": "hNav1.5; use-dependent block, hNav1.5", "value": 16.8, "unit": "µM"}, {"measurement": "IC50", "setting": "hNav1.7; use-dependent block, hNav1.7", "value": 490, "unit": "nM"}]}, {"molecule": "CC[C@H](C)[C@@H]1NC(=O)[C@@H]2CSSC[C@@H]3NC(=O)[C@H](C(C)C)NC(=O)[C@H](CC(C)C)NC(=O)[C@H](CC(N)=O)NC(=O)[C@@H]4CCCN4C(=O)[C@H](CCCNC(=N)N)NC(=O)[C@H](CSSC[C@H](NC(=O)[C@@H](N)CC(=O)O)C(=O)N[C@@H](CC(C)C)C(=O)NCC(=O)N[C@@H](Cc4ccccc4)C(=O)N[C@@H](CCSC)C(=O)N[C@@H](CCCNC(=N)N)C(=O)N[C@@H](CCCNC(=N)N)C(=O)N2)NC(=O)[C@H](CSSC[C@@H](C(=O)N[C@@H](CCCCN)C(=O)N[C@@H](Cc2ccc(O)cc2)C(=O)N[C@H](C(=O)N[C@@H](Cc2ccccc2)C(N)=O)C(C)C)NC(=O)[C@H](Cc2c[nH]c4ccccc24)NC(=O)[C@H](CCCCN)NC(=O)[C@H](Cc2cnc[nH]2)NC(=O)[C@H]([C@@H](C)O)NC(=O)[C@H](CCCNC(=N)N)NC(=O)[C@H](CO)NC3=O)NC(=O)[C@H](CCCCN)NC(=O)[C@H](CC(=O)O)NC(=O)[C@H](CC(N)=O)NC(=O)[C@H](CC(=O)O)NC(=O)[C@@H]2CCCN2C1=O", "note": "[[Arg8]GpTx-1(1-34)] (H-DCLGFMRRCIPDNDKCCRPNLVCSRTHKWCKYVF-NH2; disulfide 2-17, 9-23, 16-30)", "values": [{"measurement": "IC50", "setting": "hNav1.3; use-dependent block, hNav1.3", "value": 120, "unit": "nM"}, {"measurement": "IC50", "setting": "hNav1.5; use-dependent block, hNav1.5", "value": 13.8, "unit": "µM"}, {"measurement": "IC50", "setting": "hNav1.7; use-dependent block, hNav1.7", "value": 140, "unit": "nM"}]}]}
